Data reported in BindingDB's records for doi:10.1021/acs.jmedchem.8b01201 (Kezar Life Sciences, 2018).

How the values were obtained:
[1] = Inhibition of 20S proteosome beta 2 in human MOLT4 cells by ELISA
[2] = Inhibition of 20S proteosome beta 1 in human MOLT4 cells by ELISA
[3] = target: T1, Proteasome subunit beta type-1 (Mus musculus, UniProt O09061); experiment: Inhibition of 20S proteosome beta 1 in mouse A20 cells by ELISA
T1 sequence (O09061 whole entry): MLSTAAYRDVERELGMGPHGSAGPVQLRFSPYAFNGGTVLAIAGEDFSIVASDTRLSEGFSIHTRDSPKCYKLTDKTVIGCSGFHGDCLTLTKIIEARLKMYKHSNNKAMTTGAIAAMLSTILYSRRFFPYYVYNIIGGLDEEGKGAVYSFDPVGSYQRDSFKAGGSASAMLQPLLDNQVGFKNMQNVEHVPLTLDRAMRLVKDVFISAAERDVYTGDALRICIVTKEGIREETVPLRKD

[4] = target: T2, Proteasome subunit beta type-1 (Homo sapiens, UniProt P20618); experiment: Inhibition of 20S proteosome beta 1 in human MOLT4 cells by ELISA
T2 sequence (P20618 whole entry): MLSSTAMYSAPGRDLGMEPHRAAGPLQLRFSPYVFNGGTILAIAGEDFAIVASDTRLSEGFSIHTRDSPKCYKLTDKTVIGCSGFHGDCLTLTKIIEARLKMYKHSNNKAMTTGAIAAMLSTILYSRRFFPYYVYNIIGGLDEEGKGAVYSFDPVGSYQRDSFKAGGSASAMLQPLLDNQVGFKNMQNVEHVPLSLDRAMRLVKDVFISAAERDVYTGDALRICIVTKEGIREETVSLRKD

[5] = target: Proteasome subunit beta type-2 (Homo sapiens, UniProt P49721); experiment: Inhibition of 20S proteosome beta 2 in human MOLT4 cells by ELISA
[6] = Inhibition of 20S proteosome beta 1 in mouse A20 cells by ELISA

Sequence of Proteasome subunit beta type-2 (P49721 whole entry): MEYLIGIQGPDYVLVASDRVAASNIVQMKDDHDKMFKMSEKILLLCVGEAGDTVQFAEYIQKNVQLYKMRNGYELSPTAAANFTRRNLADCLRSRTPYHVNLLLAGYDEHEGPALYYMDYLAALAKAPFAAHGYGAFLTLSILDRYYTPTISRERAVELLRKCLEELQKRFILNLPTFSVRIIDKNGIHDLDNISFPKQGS

COc1ccc(C[C@H](NC(=O)[C@@H](C)NC(=O)[C@H]2CC[C@H](O)CC2)C(=O)N[C@@H](CC2=CCCC2)C(=O)[C@@]2(C)CO2)cc1 showed an IC50 [1] of over 25 µM and an IC50 [2] of over 25 µM.

With CC(C)C[C@H](NC(=O)CN1CCCCCC1)C(=O)N[C@@H](Cc1ccccc1)C(=O)N[C@@H](Cc1ccccc1)C(=O)[C@@]1(C)CO1 the IC50 [3] was over 250 µM and the IC50 [2] was over 250 µM.

With COc1ccc(C[C@H](NC(=O)[C@@H](C)NC(=O)[C@H]2CC[C@H](O)CC2)C(=O)N[C@@H](Cc2ccccc2)C(=O)[C@@]2(C)CO2)cc1 the IC50 [4] was over 25 µM and the IC50 [5] was over 25 µM.

Cc1ccc(CC[C@H](NC(=O)[C@H](Cc2ccccc2)NC(=O)[C@H](CC(C)C)NC(=O)CN2CCCCCC2)C(=O)[C@@]2(C)CO2)cc1 gave an IC50 [5] of 0.413 µM, an IC50 [3] of over 25 µM and an IC50 [2] of over 25 µM.

Work on COc1ccc([C@@H](O)[C@H](NC(=O)[C@H](C)NC(=O)CN2CCOCC2)C(=O)N[C@@H](CC2=CCCC2)C(=O)[C@@]2(C)CO2)cc1 [Kzr-616] yielded an IC50 [6] of over 25 µM and an IC50 [2] of over 10.6 µM.
